From patent EP0178388A1, “Quinolinecarboxylic acid derivatives” (KYORIN PHARMACEUTICAL CO., LTD., priority 1984, dated 1986)
Where a name gives a salt, the structure may show the parent alone.

Key:
[1] = test system: Eubacterium lentum GAI 5242; experiment: In vitro antibacterial activity, MIC (standard strain); assay type: cell-based; details: Eggerthella lenta, GAI5242, Eubacterium lentum GAI 5242, 10^6 cells/ml
P. aeruginosa IID 1210 = experiment: MIC against the infecting strain (Table 2); assay type: cell-based; details: Pseudomonas aeruginosa, IID1210; P. aeruginosa IID 1210 (Table 2, part 3)
S. aureus Smith = experiment: In vivo antibacterial activity against systemic infection in mice;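 also: ED50 in mg/kg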; parameters: species or system mice (ICR-S); details: Staphylococcus aureus; S. aureus Smith, mice (ICR-S), intraperitoneal infection, oral at 1 hour after infection, challenge dose 3.5 x 10^5 cfu/mouse; read-out: ED50
Procedure: Experiment 2 In vivo antibacterial activity against systemic infection in mice (ICR-S)
The infections were produced by intraperitoneal infection of a suspension of the bacterial culture corresponding to the germ studied. The product was administered orally at 1 hour after the infection. The 50% effective dose (ED50) which protects 50% of the animals from death caused by the infection was determined from the relation between dosage and survival rate.

## CC1CN(c2c(F)cc3c(=O)c(C(=O)O)cn(C4CC4)c3c2Cl)CCN1 (stereo not drawn) [Example 5, 8-Chloro-l-cyclopropyl-6-fluoro-1,4-dihydro-7-(3-methyl-1-piperazinyl)-4-oxoquinoline-3-carboxylic acid hydrochloride]
[1]
  MIC: 0.39 µg/mL
P. aeruginosa IID 1210
  MIC: 0.78 µg/mL
S. aureus Smith
  ED50: 0.89 mg/kg
